Test results reported in patent US8685977B2, “Chemical compounds” (Pfizer Limited, priority 2010, dated 2014).

Target: T1, Nav1.7 (or SCN9A) channel (Homo sapiens, UniProt Q15858)
T1 construct: expressed in transfected cells
Experiment: Nav1.7 Ionworks Quattro automated electrophysiology assay (HEK cells expressing hSCN9A)
Assay type: cell-based
Settings: Ionworks assay (IW), read-out: Nav1.7 EIC50 (IW)
Protocol: The ability of the compounds of formula (I) to block the Nav1.7 (or SCN9A) channel was measured using the assays described below. Human Embryonic Kidney (HEK) cells were transfected with an hSCN9A construct using lipofectamine reagent (Invitrogen), using standard techniques. Cells stably expressing the hSCN9A constructs were identified by their resistance to G-418 (400 μg/ml). Clones were screened for expression using the whole-cell voltage-clamp technique. HEK cells stably transfected with hSCN9A were maintained in DMEM medium supplemented with 10% heat-inactivated fetal bovine serum and 400 μg/ml G-418 in an incubator at 37° C. with a humidified atmosphere of 10% CO2. For HTS, cells were harvested from flasks by trypsinization and replated in an appropriate multi-well plate (typically 96 or 384 wells/plate) such that confluence would be achieved within 24 hours of plating. For electrophysiological studies, cells were removed from the culture flask by brief trypsinization and re-plated at low density onto glass cover slips. Cells were typically used for electrophysiological experiments within 24 to 72 hours after plating. Electrophysiological assays were also conducted using the lonworks Quattro automated electrophysiological platform (Molecular Devices Corp). Intracellular and extracellular solutions were as described above with the following changes, 100 μg/ml amphotericin was added to the intracellular solution to perforate the membrane and allow electrical access to the cells. hSCN9A cells were grown and harvested as for PatchXpress and cells were resuspended in extracellular solution at a concentration of 3−4×10^6 cells/ml. The onboard liquid handling facility of the lonworks Quattro was used for dispensing cells and application of test compounds. A voltage protocol was then applied that comprised of a voltage step to fully inactivate the sodium channels, followed by a brief hyperpolarized recovery period to allow partial recovery from inactivation for unblocked sodium channels, followed by a test depolarized voltage step to assess magnitude of inhibition by test compound. Compound effect was determined based on current amplitude difference between the pre-compound addition and post-compound addition scans. Compounds of the Examples were tested in the assays described above and found to have the Nav1.7 EIC50 (μM) values specified in the table below. All data are derived from the PatchXpress assay unless explicitly stated otherwise.

T1 sequence (Q15858 whole entry): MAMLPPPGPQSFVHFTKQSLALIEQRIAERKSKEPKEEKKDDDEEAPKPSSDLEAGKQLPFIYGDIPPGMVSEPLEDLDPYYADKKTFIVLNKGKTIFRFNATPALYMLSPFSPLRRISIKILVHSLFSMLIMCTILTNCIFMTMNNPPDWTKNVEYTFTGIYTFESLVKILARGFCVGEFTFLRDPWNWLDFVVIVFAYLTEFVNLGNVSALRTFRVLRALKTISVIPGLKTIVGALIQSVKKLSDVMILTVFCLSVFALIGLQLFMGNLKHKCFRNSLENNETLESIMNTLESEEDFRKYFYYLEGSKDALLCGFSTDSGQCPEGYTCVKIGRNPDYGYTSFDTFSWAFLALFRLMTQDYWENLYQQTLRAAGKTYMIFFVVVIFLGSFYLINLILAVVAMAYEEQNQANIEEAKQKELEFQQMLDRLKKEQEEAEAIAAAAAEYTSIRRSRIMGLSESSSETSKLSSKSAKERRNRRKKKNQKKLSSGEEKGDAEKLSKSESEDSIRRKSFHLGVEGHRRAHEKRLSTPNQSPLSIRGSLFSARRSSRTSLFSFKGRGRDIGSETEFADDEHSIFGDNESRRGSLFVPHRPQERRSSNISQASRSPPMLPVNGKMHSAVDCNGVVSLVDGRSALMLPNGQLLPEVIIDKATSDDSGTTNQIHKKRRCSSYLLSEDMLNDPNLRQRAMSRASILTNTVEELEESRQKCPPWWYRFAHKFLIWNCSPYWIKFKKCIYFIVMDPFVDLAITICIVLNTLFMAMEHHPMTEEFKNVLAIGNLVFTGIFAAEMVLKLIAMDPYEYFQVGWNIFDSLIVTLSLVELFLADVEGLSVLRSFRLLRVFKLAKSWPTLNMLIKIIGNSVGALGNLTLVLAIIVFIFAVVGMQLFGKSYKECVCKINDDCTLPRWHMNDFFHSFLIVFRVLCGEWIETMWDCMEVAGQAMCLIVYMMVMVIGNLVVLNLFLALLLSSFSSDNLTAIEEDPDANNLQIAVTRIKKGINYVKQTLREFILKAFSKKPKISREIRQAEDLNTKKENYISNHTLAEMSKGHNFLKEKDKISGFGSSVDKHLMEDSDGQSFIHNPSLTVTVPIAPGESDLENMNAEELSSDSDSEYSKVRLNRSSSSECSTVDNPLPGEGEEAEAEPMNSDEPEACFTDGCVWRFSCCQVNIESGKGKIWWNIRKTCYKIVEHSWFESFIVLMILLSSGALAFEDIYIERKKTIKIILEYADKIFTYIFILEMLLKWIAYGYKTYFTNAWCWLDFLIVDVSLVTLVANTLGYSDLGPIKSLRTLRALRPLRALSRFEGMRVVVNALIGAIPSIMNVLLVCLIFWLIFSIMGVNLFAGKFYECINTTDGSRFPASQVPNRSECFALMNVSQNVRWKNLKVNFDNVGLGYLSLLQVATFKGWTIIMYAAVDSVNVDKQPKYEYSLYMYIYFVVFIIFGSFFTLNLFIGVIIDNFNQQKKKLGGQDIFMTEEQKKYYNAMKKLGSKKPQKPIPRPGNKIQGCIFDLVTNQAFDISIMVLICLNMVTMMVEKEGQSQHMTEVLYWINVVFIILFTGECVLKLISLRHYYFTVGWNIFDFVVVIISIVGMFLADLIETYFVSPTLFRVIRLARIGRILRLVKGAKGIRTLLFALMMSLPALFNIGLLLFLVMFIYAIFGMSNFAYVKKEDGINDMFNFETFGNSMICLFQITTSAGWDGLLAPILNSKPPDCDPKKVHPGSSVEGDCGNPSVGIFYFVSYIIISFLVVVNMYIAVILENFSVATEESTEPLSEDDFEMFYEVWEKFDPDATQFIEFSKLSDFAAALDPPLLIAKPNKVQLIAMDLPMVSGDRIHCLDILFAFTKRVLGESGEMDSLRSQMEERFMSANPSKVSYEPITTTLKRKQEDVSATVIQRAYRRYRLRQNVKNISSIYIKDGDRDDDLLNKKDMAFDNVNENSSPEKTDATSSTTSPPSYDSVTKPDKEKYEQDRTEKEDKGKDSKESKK

Structure (SMILES)	IC50 [µM]
CS(=O)(=O)NC(=O)c1ccc(Oc2cc(C(F)(F)F)ccc2Cl)cc1 [Example 207, 4-[2-chloro-5-(trifluoromethyl)phenoxy]-N-(methylsulfonyl)benzamide]	13.7
COc1c(C(=O)NS(C)(=O)=O)ccc(Oc2ccc(Cl)c(F)c2)c1F [Example 221, 4-(4-chloro-3-fluorophenoxy)-3-fluoro-2-methoxy-N-(methylsulfonyl)benzamide]	300
CS(=O)(=O)NC(=O)c1ccc(Oc2ccc(C(F)(F)F)cc2)cc1C#N [Example 243, 2-cyano-N-(methylsulfonyl)-4-[4-(trifluoromethyl)phenoxy]benzamide]	11.9
CS(=O)(=O)NC(=O)c1ccc(Oc2ccccc2OC(F)(F)F)cc1 [Example 209, N-(methylsulfonyl)-4-[2-(trifluoromethoxy)phenoxy]benzamide]	28.2
CS(=O)(=O)NC(=O)c1ccc(Oc2ccccc2C#N)cc1 [Example 211, 4-(2-cyanophenoxy)-N-(methylsulfonyl)benzamide]	67
COc1cc(Oc2ccc(Cl)cc2)ccc1C(=O)NS(C)(=O)=O [Example 235, 4-(4-chlorophenoxy)-2-methoxy-N-(methylsulfonyl)benzamide]	36.6
COc1cc(C(=O)NS(C)(=O)=O)ccc1Oc1ccc(F)c(C(F)(F)F)c1 [Example 241, 4-[4-fluoro-3-(trifluoromethyl)phenoxy]-3-methoxy-N-(methylsulfonyl)benzamide]	144
CS(=O)(=O)NC(=O)c1ccc(Oc2cccc(C(F)(F)F)c2Cl)cc1 [Example 210, 4-[2-chloro-3-(trifluoromethyl)phenoxy]-N-(methylsulfonyl)benzamide]	288
CS(=O)(=O)NC(=O)c1ccc(Oc2ccc(F)c(C(F)(F)F)c2)cc1 [Example 208, 4-[4-fluoro-3-(trifluoromethyl)phenoxy]-N-(methylsulfonyl)benzamide]	18.7
COc1c(C(=O)NS(C)(=O)=O)ccc(Oc2ccc(C)cc2)c1F [Example 226, 3-fluoro-2-methoxy-4-(4-methylphenoxy)-N-(methylsulfonyl)benzamide]	300

More lines, now with the values ahead:

IC50 [µM]	Structure (SMILES)
> 323	CCOc1cccc(Oc2ccc(C(=O)NS(C)(=O)=O)cc2)c1 [Example 259, 4-(3-ethoxyphenoxy)-N-(methylsulfonyl)benzamide]
> 323	CS(=O)(=O)NC(=O)c1cc(F)c(Oc2ccccc2C#N)cc1F [Example 327, 4-(2-cyanophenoxy)-2,5-difluoro-N-(methylsulfonyl)benzamide]
277	COc1ccc(Oc2ccc(C(=O)NS(C)(=O)=O)cc2C#N)cc1 [Example 274, 3-cyano-4-(4-methoxyphenoxy)-N-(methylsulfonyl)benzamide]
61.7	COc1ccc(Oc2cc(F)c(C(=O)NS(C)(=O)=O)cc2Cl)cc1 [Example 301, 5-chloro-2-fluoro-4-(4-methoxyphenoxy)-N-(methylsulfonyl)benzamide]
116	Cc1ccccc1Oc1ccc(C(=O)NS(C)(=O)=O)cc1C#N [Example 275, 3-cyano-4-(2-methylphenoxy)-N-(methylsulfonyl)benzamide]
44.8	CCOc1ccccc1Oc1ccc(C(=O)NS(C)(=O)=O)cc1C#N [Example 273, 3-cyano-4-(2-ethoxyphenoxy)-N-(methylsulfonyl)benzamide]
> 323	CS(=O)(=O)NC(=O)c1ccc(Oc2ccccc2C(F)(F)F)c(C#N)c1 [Example 271, 3-cyano-N-(methylsulfonyl)-4-[2-(trifluoromethyl)phenoxy]benzamide]
3.91	CS(=O)(=O)NC(=O)c1cc(Cl)c(Oc2ccccc2Cl)cc1F [Example 300, 5-chloro-4-(2-chlorophenoxy)-2-fluoro-N-(methylsulfonyl)benzamide]
